Experimental findings from publication PMC3849818 (Journal of medicinal chemistry, 2013) are described below.

As a reminder, the Kd is the concentration at which binding is half-saturated.

The target of one assay is T1, OX2 receptor (Homo sapiens, UniProt O43614).
T1 sequence (O43614 1-444): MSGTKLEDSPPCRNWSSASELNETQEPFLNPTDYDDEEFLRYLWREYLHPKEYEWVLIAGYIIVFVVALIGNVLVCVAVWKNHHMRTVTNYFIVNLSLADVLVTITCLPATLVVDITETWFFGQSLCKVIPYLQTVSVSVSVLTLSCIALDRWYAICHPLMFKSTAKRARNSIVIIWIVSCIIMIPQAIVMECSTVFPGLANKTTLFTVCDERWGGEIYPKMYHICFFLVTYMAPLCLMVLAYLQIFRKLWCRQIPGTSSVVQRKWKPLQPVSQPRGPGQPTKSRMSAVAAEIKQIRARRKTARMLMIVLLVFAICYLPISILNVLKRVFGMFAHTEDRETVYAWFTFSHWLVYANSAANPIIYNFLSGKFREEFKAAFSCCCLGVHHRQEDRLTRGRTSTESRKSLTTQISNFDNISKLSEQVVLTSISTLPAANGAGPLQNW
Briefly: OX2 calcium mobilization functional assay. The format is cell-based. In general terms: Calcium assays in cells follow changes in intracellular calcium, usually with a dye or a luminescent sensor.

The next assay addresses T2, orexin 1 (OX1) receptor (Homo sapiens, UniProt O43613).
T2 sequence (O43613 1-425): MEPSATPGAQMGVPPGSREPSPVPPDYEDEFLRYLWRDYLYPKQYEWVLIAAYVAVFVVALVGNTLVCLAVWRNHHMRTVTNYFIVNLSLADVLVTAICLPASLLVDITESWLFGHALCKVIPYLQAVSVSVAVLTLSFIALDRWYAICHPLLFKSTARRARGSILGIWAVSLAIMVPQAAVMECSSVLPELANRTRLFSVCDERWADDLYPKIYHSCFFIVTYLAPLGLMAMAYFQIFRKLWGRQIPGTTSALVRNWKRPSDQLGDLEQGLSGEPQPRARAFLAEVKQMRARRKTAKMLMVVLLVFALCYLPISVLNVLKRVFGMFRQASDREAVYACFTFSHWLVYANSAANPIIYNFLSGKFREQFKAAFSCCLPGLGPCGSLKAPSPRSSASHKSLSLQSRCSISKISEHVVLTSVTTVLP
Nature of the assay: OX1 calcium mobilization functional assay. The format is cell-based. The settings on record: for OX2/OX1: ratio of Ke values.

`COc1cc2c(cc1O)C(Cc1ccc(OC)c(OC)c1)N(CC(=O)NCc1ccccc1)CC2` (centres unmarked) [Compound 11, N-benzyl-2-{1-[(3,4-dimethoxyphenyl)methyl]-7-hydroxy-6-methoxy-1,2,3,4-tetrahydroisoquinolin-2-yl}acetamide]: the Kd on OX2 receptor came to 5740 ± 96 nM.
In the case of `COc1ccc(CC2c3cc(OC)c(OC)cc3CCN2CC(=O)NCc2ccccn2)cc1OC` (centres unmarked) [Compound 53, 2-{1-[(3,4-dimethoxyphenyl)methyl]-6,7-dimethoxy-1,2,3,4-tetrahydroisoquinolin-2-yl}-N-(pyridin-2-ylmethyl)acetamide], the OX2/OX1 on orexin 1 (OX1) receptor is above 38.3. Also, the Kd on OX2 receptor was above 10000 nM.
Consider `COc1ccc(CC2c3cc(OS(C)(=O)=O)c(OC)cc3CCN2CC(=O)NCc2ccccc2)cc1OC` (centres unmarked) [Compound 26, 2-[(benzylcarbamoyl)methyl]-1-[(3,4-dimethoxyphenyl)methyl]-6-methoxy-1,2,3,4-tetrahydroisoquinolin-7-yl methanesulfonate], for which the Kd on OX2 receptor worked out at 2170 ± 790 nM.
For the compound `COc1ccc(CC2c3cc(OC)c(OC)cc3CCN2CC(=O)Nc2ccccc2-c2ccccc2)cc1OC` (centres unmarked) [Compound 44, 2-{1-[(3,4-dimethoxyphenyl)methyl]-6,7-dimethoxy-1,2,3,4-tetrahydroisoquinolin-2-yl}-N-(2-phenylphenyl)acetamide], at OX2 receptor, the Kd was found to be 1760 ± 370 nM.
Consider `COc1ccc(CC2c3cc(OCC4CCCCC4)c(OC)cc3CCN2CC(=O)NCc2ccccc2)cc1OC` (centres unmarked) [Compound 17, N-benzyl-2-[7-(cyclohexylmethoxy)-1-[(3,4-dimethoxyphenyl)methyl]-6-methoxy-1,2,3,4-tetrahydroisoquinolin-2-yl]acetamide], for which the “OX1 activity, bound stated” value on orexin 1 (OX1) receptor (no activity up to the stated concentration) was above 10 µM.
Consider `CCCCCCOc1cc2c(cc1OC)CCN(CC(=O)NCc1ccccc1)C2Cc1ccc(OC)c(OC)c1` (centres unmarked) [Compound 15, N-benzyl-2-{1-[(3,4-dimethoxyphenyl)methyl]-7-(hexyloxy)-6-methoxy-1,2,3,4-tetrahydroisoquinolin-2-yl}acetamide], for which the OX2/OX1 on orexin 1 (OX1) receptor is reported as above 31.7. Moreover, the Kd at OX2 receptor was above 10000 nM.
The corresponding values for `CCOc1cc2c(cc1OC)CCN(CC(=O)NCc1ccccn1)C2Cc1ccc(OC)c(OC)c1` (centres unmarked) [Compound 73, 2-{1-[(3,4-dimethoxyphenyl)methyl]-7-ethoxy-6-methoxy-1,2,3,4-tetrahydroisoquinolin-2-yl}-N-(pyridin-2-ylmethyl)acetamide] are above 114 and above 10000 nM.
The corresponding values for `COc1ccc(CC2c3cc(OC)c(OC)cc3CCN2CC(=O)N(C)Cc2ccccc2)cc1OC` (centres unmarked) [Compound 39, N-benzyl-2-{1-[(3,4-dimethoxyphenyl)methyl]-6,7-dimethoxy-1,2,3,4-tetrahydroisoquinolin-2-yl}-N-methylacetamide] are above 4.8 and above 10000 nM.
On to `CCCCOc1cc2c(cc1OC)CCN(CC(=O)NCc1ccccc1)C2Cc1ccc(OC)c(OC)c1` (centres unmarked) [Compound 14, N-benzyl-2-{7-butoxy-1-[(3,4-dimethoxyphenyl)methyl]-6-methoxy-1,2,3,4-tetrahydroisoquinolin-2-yl}acetamide], for which the Kd at OX2 receptor stood at 1890 ± 480 nM.
Take `CCCOc1cc2c(cc1OC)CCN(CC(=O)NCc1ccccc1)C2Cc1ccc(OC)c(OC)c1` (centres unmarked) [Compound 13, N-benzyl-2-{1-[(3,4-dimethoxyphenyl)methyl]-6-methoxy-7-propoxy-1,2,3,4-tetrahydroisoquinolin-2-.yl}acetamide]: the OX2/OX1 on orexin 1 (OX1) receptor is above 578. Further, the Kd on OX2 receptor was above 10000 nM.
For the compound `COc1ccc(CC2c3cc(OCCC(C)C)c(OC)cc3CCN2CC(=O)NCc2ccccc2)cc1OC` (centres unmarked) [Compound 16, N-benzyl-2-{1-[(3,4-dimethoxyphenyl)methyl]-6-methoxy-7-(3-methylbutoxy)-1,2,3,4-tetrahydroisoquinolin-2-yl}acetamide], the Kd at OX2 receptor came to 3920 ± 1200 nM.
On the same count and under the same terms, the value for `CCCCCCNC(=O)Nc1ccc(CNC(=O)CN2CCc3cc(OC)c(OC)cc3C2Cc2ccc(OC)c(OC)c2)cc1` (centres unmarked) [Compound 59, 2-{1-[(3,4-dimethoxyphenyl)methyl]-6,7-dimethoxy-1,2,3,4-tetrahydroisoquinolin-2-yl}-N-({4-[(hexylcarbamoyl)amino]phenyl}methyl)acetamide] was 2440 ± 670 nM; that for `CCCCCCCNC(=O)CN1CCc2cc(OC)c(OC)cc2C1Cc1ccc(OC)c(OC)c1` (centres unmarked) [Compound 60, 2-{1-[(3,4-dimethoxyphenyl)methyl]-6,7-dimethoxy-1,2,3,4-tetrahydroisoquinolin-2-yl}-N-heptylacetamide] was 2310 ± 540 nM.
For `COc1ccc(CC2c3cc(OC)c(OC)cc3CCN2CC(=O)NCc2ccc(Cl)cc2)cc1OC` (centres unmarked) [Compound 51, N-[(4-chlorophenyl)methyl]-2-{1-[(3,4-dimethoxyphenyl)methyl]-6,7-dimethoxy-1,2,3,4-tetrahydroisoquinolin-2-yl}acetamide], at OX2 receptor, the Kd is 2270 ± 110 nM.
`COc1ccc(CC2c3cc(OC)c(OC)cc3CCN2CC(=O)N2CCc3ccccc3C2)cc1OC` (centres unmarked) [Compound 35, 2-{1-[(3,4-dimethoxyphenyl)methyl]-6,7-dimethoxy-1,2,3,4-tetrahydroisoquinolin-2-yl}-1-(1,2,3,4-tetrahydroisoquinolin-2-yl)ethan-1-one]: on OX2 receptor, the Kd is 9000 ± 760 nM.
The same measure, in the same setting: then `COc1ccc(CC2c3cc(OC)c(OC)cc3CCN2CC(=O)N2CCCC(c3ccccc3)C2)cc1OC` (centres unmarked) [Compound 36, 2-{1-[(3,4-dimethoxyphenyl)methyl]-6,7-dimethoxy-1,2,3,4-tetrahydroisoquinolin-2-yl}-1-(3-phenylpiperidin-1-yl)ethan-1-one], with 9030 ± 3800 nM; and `COc1ccc(CC2c3cc(OS(=O)(=O)c4ccccc4)c(OC)cc3CCN2CC(=O)NCc2ccccc2)cc1OC` (centres unmarked) [Compound 29, 2-[(benzylcarbamoyl)methyl]-1-[(3,4-dimethoxyphenyl)methyl]-6-methoxy-1,2,3,4-tetrahydroisoquinolin-7-yl benzenesulfonate], with 2900 ± 191 nM; and `COc1ccc(CC2c3cc(OC)c(OC)cc3CCN2CC(=O)NC2CCCc3ccccc32)cc1OC` (centres unmarked) [Compound 47, 2-{1-[(3,4-dimethoxyphenyl)methyl]-6,7-dimethoxy-1,2,3,4-tetrahydroisoquinolin-2-yl}-N-(1,2,3,4-tetrahydronaphthalen-1-yl)acetamide], with 655 ± 190 nM.
Still for that read-out and setting: then `COc1ccc(CC2c3cc(OC)c(OC)cc3CCN2CC(=O)NCc2ccc(F)cc2)cc1OC` (centres unmarked) [Compound 52, 2-{1-[(3,4-dimethoxyphenyl)methyl]-6,7-dimethoxy-1,2,3,4-tetrahydroisoquinolin-2-yl}-N-[(4-fluorophenyl)methyl]acetamide], with 3460 ± 1000 nM.
As to `COc1ccc(CC2c3cc(OC)c(OC)cc3CCN2CC(=O)Nc2cccc3ccccc23)cc1OC` (centres unmarked) [Compound 41, 2-{1-[(3,4-dimethoxyphenyl)methyl]-6,7-dimethoxy-1,2,3,4-tetrahydroisoquinolin-2-yl}-N-(naphthalen-1-yl)acetamide], on orexin 1 (OX1) receptor (relative to compound 6), the “fold less potent than the benzyl compound (OX1)” value was “around 3.6 fold”.
Turning to `COc1ccc(CC2c3cc(OC)c(OC)cc3CCN2CC(=O)NCc2ccc(NC(C)=O)cc2)cc1OC` (centres unmarked) [Compound 57, 2-{1-[(3,4-dimethoxyphenyl)methyl]-6,7-dimethoxy-1,2,3,4-tetrahydroisoquinolin-2-yl}-N-[(4-acetamidophenyl)methyl]acetamide], the “OX1 activity in words” value at orexin 1 (OX1) receptor (no concentration given) is given as “total loss of OX1 activity”.
